Data reported in EP0496162A2, “Peptide inhibitors of RAS-GAP interaction” (MERCK & CO. INC., priority 1990, dated 1992).
No end group written: not given here.

Assays:
[1] = target: T1, Ras-GAP interaction (Bos taurus, UniProt P09851); assay: Ras-GAP interaction inhibition assay (GAP-stimulated Ras GTPase, charcoal adsorption); format: biochemical, bovine; conditions: concentration of peptide required to reduce GAP stimulated Ras-GTP hydrolysis by 50%; 10 fmol GAP, 240 fmol Ha ras p21-GTP, 4 minutes at 24°C
T1 construct: made in house; host or cells: GAP: E. coli JM109 (plasmid pYO); Ha-Ras: E. coli RRllaci^q (plasmid pRas[Gly12 Ala59])
T1 sequence (P09851 1-1044): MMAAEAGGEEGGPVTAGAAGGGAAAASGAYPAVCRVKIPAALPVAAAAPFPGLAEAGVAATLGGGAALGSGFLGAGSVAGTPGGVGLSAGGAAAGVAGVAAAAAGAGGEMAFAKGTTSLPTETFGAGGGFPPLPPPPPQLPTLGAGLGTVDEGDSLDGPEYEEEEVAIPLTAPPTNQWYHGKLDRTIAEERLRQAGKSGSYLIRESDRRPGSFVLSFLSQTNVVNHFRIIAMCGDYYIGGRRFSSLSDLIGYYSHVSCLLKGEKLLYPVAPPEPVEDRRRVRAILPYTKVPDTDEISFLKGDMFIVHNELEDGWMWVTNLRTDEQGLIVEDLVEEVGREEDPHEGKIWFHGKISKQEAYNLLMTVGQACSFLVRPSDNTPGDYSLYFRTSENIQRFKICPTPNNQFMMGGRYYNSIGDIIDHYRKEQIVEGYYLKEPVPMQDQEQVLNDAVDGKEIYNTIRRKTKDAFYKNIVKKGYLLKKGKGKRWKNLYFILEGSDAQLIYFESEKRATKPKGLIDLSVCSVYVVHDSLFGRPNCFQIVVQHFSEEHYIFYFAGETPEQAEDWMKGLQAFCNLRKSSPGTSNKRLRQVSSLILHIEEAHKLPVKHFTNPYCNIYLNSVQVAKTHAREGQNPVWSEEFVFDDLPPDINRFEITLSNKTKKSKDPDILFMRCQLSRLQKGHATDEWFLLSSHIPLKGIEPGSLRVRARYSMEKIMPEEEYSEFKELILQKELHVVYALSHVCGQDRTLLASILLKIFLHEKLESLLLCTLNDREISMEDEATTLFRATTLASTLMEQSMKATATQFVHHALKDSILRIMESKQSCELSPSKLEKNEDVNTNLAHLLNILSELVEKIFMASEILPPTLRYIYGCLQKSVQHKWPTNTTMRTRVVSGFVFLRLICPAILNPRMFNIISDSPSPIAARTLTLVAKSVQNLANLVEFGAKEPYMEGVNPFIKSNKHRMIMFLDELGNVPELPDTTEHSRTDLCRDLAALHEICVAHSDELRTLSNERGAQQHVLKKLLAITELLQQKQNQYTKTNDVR
Protocol: The activity of the synthetic peptides of the present invention, as inhibitors of the interaction of ras with GAP was determined in an assay which measures GAP dependent, Ras GTPase activity. Bovine GAP was either purified from fresh bovine brains or recombinantly produced in E. coli. It is understood that the methods of the present invention may utilize either the recombinant full length GAP or the bovine brain derived GAP. In addition, GAP from other species, such as human and mouse, may be substituted for bovine GAP since they share about 95% amino acid homology. Truncated recombinant forms of GAP are also suitable for use in the Ras-GAP interaction assay [Marshall, M.S., et al., (1989), EMBO J., 8, pp1105-1110]. However, for the screening of synthetic peptides for their ability to block the Ras-GAP interaction, the recombinant, full length GAP is preferred.
The Ras protein utilized in the Ras-GAP GTPase assay of the present invention is Harvey ras (Ha-ras). It is understood that other forms of Ras protein are suitable for use in the present invention. Other suitable forms of Ras protein include, but are not limited to, Kirsten Ras, yeast S. cerevisiae RAS, and N-Ras. Furthermore, it is readily apparent to those skilled in the art that any form of Ras protein which is capable of interacting with GAP is suitable for use in the Ras-GAP GTPase assay.
Ras GTPase activity was measured by the charcoal adsorption procedure. Each 50 µL reaction contained 10 fmol purified GAP, 240 fmol Ha ras p21-[γ ³²P] GTP and 1 mg/mL BSA in buffer D. Varying amounts of the competing peptides were added as indicated. Prewarmed reactions (24°C) were initiated by the addition of GAP, then incubated for 4 minutes at 24°C. The reactions were terminated by the addition of 5 volumes of ice cold 5% activated charcoal (Sigma: HCl washed) in 50 mM NaH₂PO₄. GTPase activity was quantitated by measuring the free ³²P-orthophosphate in the cleared supernatant after centrifugation of the charcoal mix. GAP-stimulated Ras GTPase activity in the absence of competitors was 40-60 fmol Ras-GTP hydrolyzed; the 100% control value. In the absence of GAP, GTP hydrolysis was not detectable during the incubation period of the assay. Inhibitors of this assay block GAP-stimulated Ras GTPase without impairing intrinsic Ras GTPase, assayed in the absence of GAP following incubation at 24°C for one hour.
(§1) Ras peptides were dissolved in either 100% dimethyl formamide (DMF, American Burdick and Jackson) or 100% dimethyl sulfoxide (DMSO, Fluka UV-spectroscopy grade) at a calculated peptide concentration of 1-4 mM. Following 1 minute in a Sonicor SC-200 bath sonicator at room temperature, the peptide solutions were vortexed, and then centrifuged for 5 minutes at room temperature in an Eppendorf microfuge to remove any undissolved material. 20 µL of the cleared peptide solutions were then added to 80 µL of Buffer D in a dilution series covering a range of peptide concentrations from 0.02 µM up to the maximum solubility limit for each peptide. In each dilution, the solvent concentration was maintained at 20%. These peptides solutions were then centrifuged for 5 minutes at room temperature at 10,000 x g, and the cleared supernatants were divided into 2 parts. One part of each cleared peptide dilution was used in a GAP competition assay: 40 µL was added to a 5 µL solution containing 0.1 mg/mL BSA plus 240 fmol Ha-ras p21-[γ-³²P]GTP. Reactions were initiated upon addition of 5 µL of diluted GAP (10 fmol), and analyzed as described above.

[2] = format: physicochemical
Protocol: as §1
The other portion of the cleared peptide solution was measured spectrophotometrically to determine solubility and concentration of the peptides. Extinction coefficients were determined by measuring the absorbance at 277 nm of 2 peptides whose exact concentrations were quantitated by amino acid analysis. The extinction coefficients for peptide Ras 17-37 dissolved in buffer D/20% DMF or peptide Ras 91-103 (SEQ ID NO:14)dissolved in water/20% DMSO, were 2580 cm⁻¹M⁻¹ and 2230 cm⁻¹ M⁻¹, respectively. These values were used to determine the exact concentration for each peptide used at each point in the competition assay. In addition, peptide solubility was confirmed by comparing the light scattering at 600 nm for each peptide solution measured before and after centrifugation. Only concentrations reflecting 100% solubility were used in the dose response curves, and the maximum concentration used for each peptide competitor indicates the limit of solubility for that peptide.

| Compound | IC50 [1] | Maximum Solubility [2] | IC50* [1] |
| --- | --- | --- | --- |
| CC[C@H](C)[C@H](NC(=O)[C@H](CC(C)C)NC(=O)[C@H](CCC(N)=O)NC(=O)[C@@H](NC(=O)[C@@H](NC(=O)[C@H](CC(C)C)NC(=O)[C@H](C)NC(=O)[C@@H](N)CO)[C@@H](C)O)[C@@H](C)CC)C(=O)N[C@@H](CCC(N)=O)C(=O)N[C@@H](CC(N)=O)C(=O)N[C@@H](Cc1c[nH]cn1)C(=O)N[C@@H](Cc1ccccc1)C(=O)N[C@H](C(=O)N[C@@H](CC(=O)O)C(=O)N[C@@H](CCC(=O)O)C(=O)N[C@@H](Cc1ccc(O)cc1)C(=O)O)C(C)C [Ras 17-32] | 900 nM | 19 µM | – |
| LIQNHFVDEYDPTIE [Ras 23-37] | – | 250 µM | no inhibition |
| SALTIQLIQNHFVDEYDPTIE [Ras 17-37] | 3600 nM | 40 µM | – |
